Data set [1] in a line: Functional stability assay in human plasma. As for the experimental part:
Fourth, the stability of peptides in human plasma and whole human blood was tested (FIG. 4). The functional stability of EPI-X4 (SEQ ID NO.: 1) derivatives was screened using a CXCR4 antibody-based screening approach. Peptides were diluted in full human plasma or blood (>99%) and the functional activity was then measured after either 2 hours or 8 hours and compared to a sample that was not incubated in plasma or blood.
In this test, the peptides were incubated in human plasma for a certain time period.
Stability assay. Whole blood was collected from healthy donors in EDTA tubes and directly used or subsequently centrifuged for 15 min at 2,500×g to obtain plasma. Plasma from 6 donors was pooled and stored in aliquots at −80° C. Compounds were 200-fold diluted in human plasma or whole human blood to reach final concentrations of 20 μM. The t=0 sample was immediately taken and stored at −80° C. Plasma/compound or blood/compound mixture was then transferred to 37° C. and shook at 350 rpm. At given time points samples were taken and stored at −80° C.°. For measuring the functional activity of the plasma/peptide samples, the mixtures were thawed and diluted in ice cold PBS. 12G5-APC antibody competition was then performed as described before. For blood/peptide functional stability, samples were thawed and centrifuged at 14,000 rpm to remove cells and debris. The supernatant was then diluted in PBS and 12G5-antibody competition assay was performed. After the 2 hours incubation, the cells were washed and 50 μl of 1-step-Fix/Lyse solution (Thermo Fisher #00-5333-54) was added for 15 minutes at room temperature. Afterwards cells were washed again and analyzed for bound antibody.

Data set [2] concerns CXCR4-tropic X4-HIV-1 (NL4-3). It counts as cell-based. The settings on record: for IC50: CXCR4-tropic X4- (NL4-3).
Protocol: The activity of the peptides was estimated by different assays.
The X4-HIV inhibition assay is designed to measure the activity of the inventive peptides by their efficiency of blocking the infection of tissue culture cells by CXCR4-tropic HIV-1 variants.
HIV-1 inhibition assay. […] For infection of TZM-bl cells in presence of inhibitors, cells were seeded at a density of 1×10^5 cells/ml in 70 μl DMEM containing 2.5% FCS. Compounds were diluted in PBS and 10 μl were added. After 15 minutes of incubation cells were inoculated with 20 μl of diluted virus. Infection rates were determined three days later using Gal-Screen system (Applied Biosystems).
Data set [3] deals with CXC chemokine receptor type 4 (CXCR4) (human, UniProt P61073 1-352). Description: cell-based or functional assay.
CXC chemokine receptor type 4 (CXCR4), sequence (P61073 whole entry): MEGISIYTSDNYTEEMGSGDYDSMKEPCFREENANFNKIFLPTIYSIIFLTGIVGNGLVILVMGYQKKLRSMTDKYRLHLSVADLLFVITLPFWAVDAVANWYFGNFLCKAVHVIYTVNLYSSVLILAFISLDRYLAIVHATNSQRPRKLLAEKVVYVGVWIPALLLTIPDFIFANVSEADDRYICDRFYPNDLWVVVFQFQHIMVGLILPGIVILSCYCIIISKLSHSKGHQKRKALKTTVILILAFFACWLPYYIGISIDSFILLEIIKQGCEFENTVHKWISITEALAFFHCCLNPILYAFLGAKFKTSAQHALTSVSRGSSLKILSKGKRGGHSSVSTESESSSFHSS

Where a SMILES comes first, the peptide text is derived from it. Primed or numbered codes have the meaning given here. Where no end group is shown, it is not given here. Side-chain parts run from the residue outwards. [ ]: non-standard residue; d: D form. The star is where a group is joined. Glu″ = glutamate linker (Glu-Pal); Palmitoyl = CCCCCCCCCCCCCCCC(=O)*; Ole = not defined here Bounds are passed on as bounds.

Usually IC50 stands for the concentration needed to halve the response being measured. Consider `CSCC[C@@H](N)C(=O)N[C@@H](CC(C)C)C(=O)N[C@@H](CCCNC(=N)N)C(=O)N[C@@H](Cc1c[nH]c2ccccc12)C(=O)N[C@@H](CO)C(=O)N[C@@H](CCCNC(=N)N)C(=O)N[C@@H](CCCCN)C(=O)N[C@@H](CCSC)C(=O)N1CCC[C@H]1C(=O)N[C@@H](CS)C(=O)N[C@H](C(=O)N[C@@H](CO)C(=O)O)C(C)C` [JM #28] (H-[dM]LRWSRKMPCVS-OH; C-terminus assumed), for which the “remaining (relative) activity after 2 hours of plasma incubation” value in data set [1] (human plasma) was determined as 96%. The “remaining (relative) activity after 8 hours of plasma incubation” value in data set [1] (human plasma, 8 hours) is reported as 77%. Moreover, inhibition in data set [2] was half-maximal at 246 nM (IC50).

As for `CC[C@@H](C)[C@@H](N)C(=O)N[C@@H](CC(C)C)C(=O)N[C@@H](CCCNC(=N)N)C(=O)N[C@@H](Cc1c[nH]c2ccccc12)C(=O)N[C@@H](CO)C(=O)N[C@@H](CCCNC(=N)N)C(=O)N[C@@H](CCCCN)C(=O)N[C@@H](CC(C)C)C(=O)N1CCC[C@H]1C(N)=O` [JM #174] (H-[dI]LRWSRKLP-NH2), the “remaining (relative) activity after 8 hours of plasma incubation” value in data set [1] (human plasma, 8 hours) came out at 100%.

Molecule `CC[C@H](C)[C@H](N)C(=O)N[C@@H](CC(C)C)C(=O)N[C@@H](CCCNC(=N)N)C(=O)N[C@@H](Cc1c[nH]c2ccccc12)C(=O)N[C@@H](CO)C(=O)N[C@@H](CCCNC(=N)N)C(=O)N[C@@H](CCCCN)C(=O)N[C@@H](CCSC)C(=O)N1CCC[C@H]1C(=O)N[C@@H](CS)C(=O)N[C@@H](Cc1ccccc1)C(=O)N[C@@H](CO)C(=O)O` [JM #19] (H-ILRWSRKMPCFS-OH; C-terminus assumed) registered an IC50 in data set [2] of 5 to 10 nM.

In the case of “SC033: PEG-coupled peptide JM #21, average molecular mass 5 kDa (ILRWSRKLPCVS; also: PEG-coupled, average 5 kDa, attachment site not given here)”, the “remaining (relative) activity after 8 hours of plasma incubation” value in data set [1] (human, plasma, 8 h) amounted to 72%. Also, the “anti-HIV-1 activity (in words)” value in data set [2] was “comparable to the state of the art CXCR4-antagonist AMD3100 and JM #21”.

Regarding “SC024: PEG-coupled peptide JM #21, average molecular mass 20 kDa (ILRWSRKLPCVS; also: coupled to PEG 20 kDa, site not given here)”, the “remaining (relative) activity after 8 hours of plasma incubation” value in data set [1] (human, plasma, 8 h) came out at 30%. Moreover, the “anti-HIV-1 activity (in words)” value in data set [2] was “comparable to the state of the art CXCR4-antagonist AMD3100 and JM #21”.

“d-MLRWSRKK(Glu-Pal)-NH2 ([dM]LRWSRKK([Glu″-Palmitoyl])-NH2) [JM #197]”: the “anti-HIV-1 activity (in words)” value in data set [2] is recorded as “strongly increased anti-HIV-1 activity”.

The molecule `CC[C@H](C)[C@H](N)C(=O)N[C@@H](CCSC)C(=O)N[C@@H](CCCNC(=N)N)C(=O)N[C@@H](Cc1c[nH]c2ccccc12)C(=O)N[C@@H](CO)C(=O)N[C@@H](CCCNC(=N)N)C(=O)N[C@@H](CCCCN)C(=O)N[C@@H](CCSC)C(=O)N1CCC[C@H]1C(=O)N[C@@H](CS)C(=O)N[C@H](C(=O)N[C@@H](CO)C(=O)O)C(C)C` [JM #17] (H-IMRWSRKMPCVS-OH; C-terminus assumed) gave an IC50 in data set [2] below 5 nM.

As to “d-LMRWSRKK(Glu-Pal)-NH2 ([dL]MRWSRKK([Glu″-Palmitoyl])-NH2) [JM #195]”, the “anti-HIV-1 activity (in words)” value in data set [2] is recorded as “strongly increased anti-HIV-1 activity”.

Regarding `CSCC[C@H](NC(=O)[C@H](N)CC(C)C)C(=O)N[C@@H](CCCNC(=N)N)C(=O)N[C@@H](Cc1c[nH]c2ccccc12)C(=O)N[C@@H](CO)C(=O)N[C@@H](CCCNC(=N)N)C(=O)N[C@@H](CCCCN)C(=O)N[C@@H](CCSC)C(=O)N1CCC[C@H]1C(=O)N[C@@H](CS)C(=O)N[C@H](C(=O)N[C@@H](CO)C(=O)O)C(C)C` [JM #36] (H-[dL]MRWSRKMPCVS-OH; C-terminus assumed), in data set [1] (human plasma), the “remaining (relative) activity after 2 hours of plasma incubation” value is given as 85%. In addition, in data set [1] (human plasma, 8 hours), the “remaining (relative) activity after 8 hours of plasma incubation” value is given as 81%.

The molecule `CC[C@H](C)[C@H](N)C(=O)N[C@@H](CC(C)C)C(=O)N[C@@H](CCCNC(=N)N)C(=O)N[C@@H](Cc1c[nH]c2ccccc12)C(=O)N[C@@H](CO)C(=O)N[C@@H](CCCNC(=N)N)C(=O)N[C@@H](CCCCN)C(=O)N[C@@H](CCSC)C(=O)N1CCC[C@H]1C(=O)N[C@@H](CS)C(=O)N[C@@H](CCSC)C(=O)N[C@@H](CO)C(=O)O` [JM #20] (H-ILRWSRKMPCMS-OH; C-terminus assumed) returned an IC50 in data set [2] below 5 nM.

As for `CC[C@H](C)[C@H](N)C(=O)N[C@@H](CC(C)C)C(=O)N[C@@H](CCCNC(=N)N)C(=O)N[C@@H](Cc1c[nH]c2ccccc12)C(=O)N[C@@H](CO)C(=O)N[C@@H](CCCNC(=N)N)C(=O)N[C@@H](CCCCN)C(=O)N[C@@H](CCSC)C(=O)N1CCC[C@H]1C(=O)N[C@@H](CS)C(=O)N[C@H](C(=O)N[C@@H](CO)C(=O)O)C(C)C` [JM #13] (H-ILRWSRKMPCVS-OH; C-terminus assumed), in data set [2], the IC50 was below 5 nM.

As to “d-MLRWSRK(Glu-Pal)-NH2 ([dM]LRWSRK([Glu″-Palmitoyl])-NH2) [JM #196]”, the “anti-HIV-1 activity (in words)” value in data set [2] is listed as “strongly increased anti-HIV-1 activity”.

In data set [2], `CC[C@H](C)[C@H](N)C(=O)N[C@@H](CC(C)C)C(=O)N[C@@H](CCCNC(=N)N)C(=O)N[C@@H](Cc1c[nH]c2ccccc12)C(=O)N[C@@H](CO)C(=O)N[C@@H](CCCNC(=N)N)C(=O)N[C@@H](CCCCN)C(=O)N[C@@H](Cc1ccccc1)C(=O)N1CCC[C@H]1C(=O)N[C@@H](CS)C(=O)N[C@H](C(=O)N[C@@H](CO)C(=O)O)C(C)C` [JM #22] (H-ILRWSRKFPCVS-OH; C-terminus assumed) had an IC50 below 5 nM.

Consider ILRWSRK(Ole)LPCVS (reading uncertain) [JM#183], for which the “IC50, HIV inhibition assay” value in data set [3] lay within 5 to 10 nM.

B1: JM#180 (peptide)
peptide: [dL]MRWSRK(Palmitoyl)-NH2
modifications: N-terminus assumed
SMILES: CCCCCCCCCCCCCCCC(=O)NCCCC[C@H](NC(=O)[C@H](CCCNC(=N)N)NC(=O)[C@H](CO)NC(=O)[C@H](Cc1c[nH]c2ccccc12)NC(=O)[C@H](CCCNC(=N)N)NC(=O)[C@H](CCSC)NC(=O)[C@H](N)CC(C)C)C(N)=O
Consider B1, for which, in data set [3], the “IC50, HIV inhibition assay” value lay within 5 to 10 nM.

Turning to [dI]LRWSRK-NH2 (not fully specified (residue 7)) [JM#238], the “IC50, HIV inhibition assay” value in data set [3] was in the range of 5 to 10 nM.

In the case of [dL]LRWSRK-NH2 (not fully specified (residue 7)) [JM#235], the “IC50, HIV inhibition assay” value in data set [3] fell in the range of 5 to 10 nM.

Consider ILRWSRKLPCVS (not fully specified (residue 7)) [JM#213], for which, in data set [3], the “IC50, HIV inhibition assay” value lay within 5 to 10 nM.

B2: JM#172 (peptide)
peptide: ILRWSRK(Palmitoyl)L-NH2
modifications: N-terminus assumed
SMILES: CCCCCCCCCCCCCCCC(=O)NCCCC[C@H](NC(=O)[C@H](CCCNC(=N)N)NC(=O)[C@H](CO)NC(=O)[C@H](Cc1c[nH]c2ccccc12)NC(=O)[C@H](CCCNC(=N)N)NC(=O)[C@H](CC(C)C)NC(=O)[C@@H](N)[C@@H](C)CC)C(=O)N[C@@H](CC(C)C)C(N)=O
In the case of B2, the “IC50, HIV inhibition assay” value in data set [3] lay within 5 to 10 nM.

As for [dL]LRWSRK-NH2 (not fully specified (residue 7)) [JM#257], the “IC50, HIV inhibition assay” value in data set [3] lay in the range of 5 to 10 nM.

These data come from patent US20230131339A1, “EPI-X4 BASED PEPTIDES AND DERIVATIVES THEREOF” (Universitaet Ulm, priority 2020, published 2023).
